Source: ChEMBL document CHEMBL1201862, “PubChem BioAssay data set” (2004)
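How tested: cells in 96-well plates exposed to compound for 48 hours at five concentrations. GI50 marks 50% less growth.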 Activity calls are given as the source filed them. Cut-off read from the data, not from the text of the source: active = GI50 up to about 1.1 µM and inactive = higher.

Experiments:
Experiment in all cases: NCI-60 cell line screen, 48 h
OVCAR-3 = system: OVCAR-3
TK-10 = system: TK-10
SK-MEL-28 = system: SK-MEL-28
MDA-MB-231 = system: MDA-MB-231
SF-268 = system: SF-268
UACC-62 = system: UACC-62
IGROV-1 = system: IGROV-1
UO-31 = system: UO-31
A498 = system: A498
M14 = system: M14
MOLT-4 = system: MOLT-4
A549 = system: A549
BT-549 = system: BT-549
T47D = system: T47D
HCT-116 = system: HCT-116
HOP-92 = system: HOP-92
NCI/ADR-RES = system: NCI/ADR-RES
SK-MEL-5 = system: SK-MEL-5
SF-539 = system: SF-539
NCI-H522 = system: NCI-H522
HL-60 = system: HL-60
DU-145 = system: DU-145
LOX IMVI = system: LOX IMVI
786-0 = system: 786-0
OVCAR-4 = system: OVCAR-4
NCI-H460 = system: NCI-H460
OVCAR-5 = system: OVCAR-5
SF-295 = system: SF-295
CAKI-1 = system: CAKI-1
HOP-62 = system: HOP-62
SNB-19 = system: SNB-19
Malme-3M = system: Malme-3M
SW-620 = system: SW-620
SR = system: SR
SN12C = system: SN12C
HT-29 = system: HT-29
COLO 205 = system: COLO 205
MCF7 = system: MCF7
SK-MEL-2 = system: SK-MEL-2
ACHN = system: ACHN
MDA-N = system: MDA-N
UACC-257 = system: UACC-257
PC-3 = system: PC-3
NCI-H226 = system: NCI-H226
SK-OV-3 = system: SK-OV-3
MDA-MB-435 = system: MDA-MB-435
Hs-578T = system: Hs-578T
HCT-15 = system: HCT-15
U-251 = system: U-251
K562 = system: K562
RXF 393 = system: RXF 393
OVCAR-8 = system: OVCAR-8
KM12 = system: KM12
EKVX = system: EKVX
HCC 2998 = system: HCC 2998
SNB-75 = system: SNB-75
CCRF-CEM = system: CCRF-CEM
NCI-H23 = system: NCI-H23
RPMI-8226 = system: RPMI-8226

Measured: GI50

CN1CC(S(=O)(=O)c2ccccc2)CC(S(=O)(=O)c2ccccc2)C1c1ccccc1 (stereo not drawn)
inactive: OVCAR-3 12.3 µM | TK-10 14.2 µM | SK-MEL-28 15.9 µM | MDA-MB-231 15.3 µM | SF-268 16.2 µM | UACC-62 14.3 µM | IGROV-1 25.9 µM | UO-31 15.3 µM | A498 16.2 µM | M14 16.8 µM | MOLT-4 16.8 µM | A549 32.7 µM | BT-549 11.7 µM | T47D 18.2 µM | HCT-116 10.4 µM | HOP-92 18.2 µM | NCI/ADR-RES 23.3 µM | SK-MEL-5 14.6 µM | SF-539 4.86 µM | NCI-H522 2.9 µM | HL-60 8.81 µM | DU-145 18 µM | LOX IMVI 11.7 µM | 786-0 12.2 µM | OVCAR-4 12 µM | NCI-H460 16.2 µM | OVCAR-5 15.2 µM | SF-295 29.4 µM | CAKI-1 10.8 µM | HOP-62 20 µM | SNB-19 23.4 µM | Malme-3M 13.6 µM | SW-620 8.3 µM | SR 6.22 µM | SN12C 10.4 µM | HT-29 14.8 µM | COLO 205 13.6 µM | MCF7 12.4 µM | SK-MEL-2 4.47 µM | ACHN 12.5 µM | MDA-N 11.6 µM | UACC-257 15 µM | PC-3 12.1 µM | NCI-H226 21.2 µM | SK-OV-3 39.1 µM | MDA-MB-435 10.9 µM | Hs-578T 20.9 µM | U-251 12.1 µM | K562 15 µM | RXF 393 14.9 µM | OVCAR-8 28.7 µM | KM12 13.2 µM | EKVX 14.3 µM | HCC 2998 15.9 µM
12.4 µM: HCT-15

O=C1C=CC(=O)c2c1ccc1c3ccccc3n(Cc3ccccc3)c21
21.9 µM: HCT-15
inactive: SNB-75 > 82.8 µM | OVCAR-3 17.3 µM | TK-10 18.6 µM | SK-MEL-28 24.4 µM | MDA-MB-231 20.3 µM | SF-268 32.1 µM | CCRF-CEM 1.8 µM | UACC-62 25.4 µM | IGROV-1 21.6 µM | UO-31 20.2 µM | A498 19.8 µM | M14 18 µM | MOLT-4 7.55 µM | A549 > 100 µM | BT-549 20.4 µM | T47D 25.1 µM | HCT-116 19.1 µM | HOP-92 > 10 µM | NCI/ADR-RES 42.2 µM | SK-MEL-5 32.3 µM | SF-539 38.4 µM | NCI-H522 14.3 µM | DU-145 > 80.4 µM | LOX IMVI 20 µM | 786-0 16.2 µM | OVCAR-4 13.3 µM | NCI-H460 > 43.2 µM | OVCAR-5 20.9 µM | SF-295 > 100 µM | CAKI-1 17.2 µM | NCI-H23 19.5 µM | HOP-62 > 100 µM | SNB-19 > 100 µM | Malme-3M 16.6 µM | SW-620 7.21 µM | SR 10.9 µM | SN12C 21.6 µM | HT-29 24.9 µM | COLO 205 18.9 µM | MCF7 17.1 µM | SK-MEL-2 31.5 µM | ACHN 18.2 µM | MDA-N 23 µM | UACC-257 19 µM | PC-3 21.8 µM | NCI-H226 7.29 µM | SK-OV-3 > 100 µM | MDA-MB-435 26.1 µM | Hs-578T 42.2 µM | U-251 51.9 µM | K562 2.84 µM | RXF 393 16.8 µM | OVCAR-8 28.2 µM | KM12 > 57.5 µM | EKVX > 64.9 µM | HCC 2998 > 37 µM
active: RPMI-8226 0.231 µM
